PubChem BioAssay AID611 (The Scripps Research Institute Molecular Screening Center, 2007)
pIC50: −log10 of the molar value. The source made the active and inactive calls.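 Rule for the calls: active = IC50 at or below 10 micromolar, estimated by hand when no curve fit or under half inhibition at top dose; inactive = IC50 above 10 micromolar.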

Target: Steroidogenic factor 1 (Homo sapiens) (UniProt Q13285)
Assay: SF-1 inhibitors in Gal4 reporter counter-screen, dose response, counter-screen for RORA inhibitor project, cell-based, CHO-K1, Gal4-SF-1 LBD, luciferase luminescence (AID 611)
Settings: CHO-K1 Gal4-SF-1 LBD luciferase reporter

Sequence of Steroidogenic factor 1 (Homo sapiens) (Q13285 whole entry, looked up, the tested form may be a part): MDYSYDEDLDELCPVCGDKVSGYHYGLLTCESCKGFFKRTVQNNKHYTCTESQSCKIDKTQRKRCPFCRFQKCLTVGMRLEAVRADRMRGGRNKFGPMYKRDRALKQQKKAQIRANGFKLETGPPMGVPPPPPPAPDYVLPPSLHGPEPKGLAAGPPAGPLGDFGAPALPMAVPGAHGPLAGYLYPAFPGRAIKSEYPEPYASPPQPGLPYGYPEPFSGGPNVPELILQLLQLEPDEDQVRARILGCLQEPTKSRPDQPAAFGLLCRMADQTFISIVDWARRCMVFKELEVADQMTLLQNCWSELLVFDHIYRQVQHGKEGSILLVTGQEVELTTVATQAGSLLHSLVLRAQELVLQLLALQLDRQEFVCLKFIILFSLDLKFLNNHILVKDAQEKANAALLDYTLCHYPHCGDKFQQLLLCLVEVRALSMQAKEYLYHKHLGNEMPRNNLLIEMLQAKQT

Structure (SMILES) | IC50 | pIC50
O=C(O)CCCCCN1C(=O)CSC1=S | > 99000 nM (inactive) | 
O=S(=O)(c1ccc2c(c1)C(=NO)c1cc(S(=O)(=O)N3CCCCC3)ccc1-2)N1CCCCC1 |  | 5.67
Cc1ccc(C(=O)/C=C/Nc2ccccn2)cc1 |  | 5.83
COC(=O)C1=C(CN2CCCc3ccccc32)NC(=O)NC1c1ccc(F)cc1 (centres undefined) |  | 5.18
Cn1nc(CC(=O)Nc2ccc(N3CCN(C(=O)OC(C)(C)C)CC3)cc2)c2ccccc2c1=O |  | 5.59
COc1cc(/C=N/O)ccc1OCc1ccc(C(=O)O)cc1 |  | 6.17
O=C(/C=C\Nc1ccc2c(c1)OCO2)c1ccccn1 |  | 5.82
CC(=O)CC1OC(=O)C(Br)=C1NCc1ccccc1 (centres undefined) | inactive | 
O=C(/C=C\Nc1ccccn1)c1ccc(Cl)cc1 |  | 5.31
